The text below walks through data of US20110015371A1 (Vertex Pharmaceuticals Incorporated, priority 1994, published 2011).

Counter-ions that a name gives are not always drawn. Non-standard residues stand in square brackets, D forms with d. Residues, ends and D or L forms follow the SMILES beside them. *: point of attachment. Hyp = O=C(O)[C@@H]1C[C@@H](O)CN1; Tic = O=C(O)[C@@H]1Cc2ccccc2CN1; Bn = c1ccc(C*)cc1

This experiment concerns the target T1, ICE (Homo sapiens, UniProt P29466).
T1 sequence (P29466 120-297 limits assumed): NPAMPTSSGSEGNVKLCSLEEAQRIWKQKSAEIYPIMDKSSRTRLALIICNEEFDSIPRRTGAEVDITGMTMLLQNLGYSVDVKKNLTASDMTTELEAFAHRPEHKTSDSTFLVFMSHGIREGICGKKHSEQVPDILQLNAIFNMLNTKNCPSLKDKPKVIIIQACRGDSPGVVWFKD
T1 sequence (P29466 317-404 limits assumed): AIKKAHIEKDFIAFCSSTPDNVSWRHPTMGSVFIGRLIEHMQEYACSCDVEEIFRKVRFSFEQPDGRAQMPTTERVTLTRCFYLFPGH
Briefly: Enzyme assay with UV-visible substrate (Succinyl-Tyr-Val-Ala-Asp-pNitroanilide). Format: biochemical. Here is the method: 1. Enzyme Assay with UV-Visible Substrate
This assay is run using an Succinyl-Tyr-Val-Ala-Asp-pNitroanilide substrate. Synthesis of analogous substrates is described by L. A. Reiter (Int. J. Peptide Protein Res. 43, 87-96 (1994)). The assay mixture contains:
The visible ICE assay is run in a 96-well microtiter plate. Buffer, ICE and DMSO (if inhibitor is present) are added to the wells in the order listed. The components are left to incubate at room temperature for 15 minutes starting at the time that all components are present in all wells. The microtiter plate reader is set to incubate at 37° C. After the 15 minute incubation, substrate is added directly to the wells and the reaction is monitored by following the release of the chromophore (pNA) at 405-603 nm at 37° C. for 20 minutes. A linear fit of the data is performed and the rate is calculated in mOD/min. DMSO is only present during experiments involving inhibitors, buffer is used to make up the volume to 100 μl in the other experiments.
For determination of enzyme inhibition constants (Ki) or the mode of inhibition (competitive, uncompetitive or noncompetitive), the rate data determined in the enzyme assays at varying inhibitor concentrations are computer-fit to standard enzyme kinetic equations (see I. H. Segel, Enzyme Kinetics, Wiley-Interscience, 1975).

Take `CC(C(=O)N[C@H](C=O)CC(=O)O)n1c(Cc2ccccc2)ccc(NC(=O)CCc2ccccc2)c1=O` (mixture of isomers) [Compound 54h, 3(S), N(2(R,S))3-(2-(6-Benzyl-1,2-dihydro-2-oxo-3-(3-phenylpropionyl)amino-1-pyridyl)propionylamino)-4-oxobutanoic acid]: the affinity (Example 4 table) corresponds to a Ki of 0.97 µM.
Same read-out and setting: in the case of `O=CC(CC(=O)O)NC(=O)C1CCc2ncc(NC(=O)c3ccccc3)c(=O)n21` (single isomer, unassigned) [Compound 7a] it was 35 µM; in that of `O=CC(CC(=O)O)NC(=O)C1CCc2ncc(NC(=O)c3ccccc3)c(=O)n21` (single isomer, unassigned) [Compound 7b], 1.2 µM; in that of `O=C[C@H](CC(=O)O)NC(=O)CN(CCc1ccccc1)C(=O)c1ncc(CCCc2ccccc2)[nH]1` [Compound 25, (3S)-(2-{Phenethyl-[5-(3-phenylpropyl)-1H-imidazole-2-carbonyl]amino}acetylamino)-4-oxobutanoic acid trifluoroacetic acid salt], 6.2 µM.
The same measure, in the same setting: then `O=C[C@H](CC(=O)O)NC(=O)Cn1c(-c2ccccc2)ccc(NC(=O)CCc2ccccc2)c1=O` [Compound 54f, 3(S)3-(1,2-Dihydro-2-oxo-6-phenyl-3-(3-phenyl-propionyl)amino-1-pyridyl)acetylamino-4-oxobutanoic acid], with 0.9 µM.
Consider `O=C[C@H](CC(=O)O)NC(=O)CN1CCCC[C@H](NC(=O)CCc2ccc(O)cc2)C1=O` [Compound 92, 3-(S)-(2-(3[3-(S)-(4-Hydroxy-phenyl)-propionylamino]-2-oxo-azepan-1-yl)-acetylamino)-4-oxo-butyric acid], for which the Ki (Example 6 table) was 3.8 µM.
Same read-out and setting: then `O=C(O)C[C@H](NC(=O)[C@@H]1CCc2ncc(NC(=O)CCc3ccccc3)c(=O)n21)C(=O)c1ncc(-c2c(Cl)cccc2Cl)o1` [Compound 102c, 4-[5-(2,6-Dichloro-phenyl)-oxazol-2-yl]-4-oxo-(3S)-{[4-oxo-3-(3-phenyl-propionylamino)-4,6,7,8-tetrahydro-pyrrolo[1,2-a]pyrimidine-(6S)-carbonyl]-amino}-butyric acid], with 0.68 µM.
On the same count and under the same terms, then `O=C[C@H](CC(=O)O)NC(=O)CN1CCN(Cc2ccccc2)C[C@H](NC(=O)OCc2ccccc2)C1=O` [Compound 114b, 3(S)-{2-[4-Benzyl-7-oxo-6(S)—(N-benzyloxycarbonylamino)-[1,4]diazepan-1-yl]-acetylamino}-4-oxo-butyric acid trifluoroacetic acid salt], with 3.7 µM.
Regarding `O=C[C@H](CC(=O)O)NC(=O)[C@@H]1CCCN2C(=O)C[C@@H](NC(=O)CCc3ccccc3)C(=O)N12` [Compound 132b], the inhibition constant Ki (Example 6 table) amounted to 12.5 µM.
On to `O=C[C@H](CC(=O)O)NC(=O)[C@@H]1CS[C@@H]2CCC[C@H](NC(=O)CCc3ccccc3)C(=O)N21` [Compound 141], for which the affinity (Example 6 table), expressed as Ki, was 0.67 µM.
Same read-out and setting: then `CC(C)[C@H](NC(=O)OCc1ccccc1)C(=O)N[C@@H](C)C(=O)N[C@@H](CC(=O)O)C(=O)c1ncco1` [Compound 152], with 8.8 µM; and `CC(C)[C@H](NC(=O)OCc1ccccc1)C(=O)N[C@@H](C)C(=O)N[C@@H](CC(=O)O)C(=O)c1nc(-c2ccccc2)co1` [Compound 153], with 0.24 µM.
Still for that read-out and setting: in the case of `CC(=O)N[C@@H](Cc1ccc(O)cc1)C(=O)N[C@H](C(=O)N1CCC[C@H]1C(=O)N[C@@H](CC(=O)O)C(=O)c1ncc(-c2c(Cl)cccc2Cl)o1)C(C)C` [Compound 155] it was 0.023 µM.
For `O=C(O)C[C@H](NC(=O)[C@@H]1CCCN1C(=O)c1ncc(CCCc2ccccc2)[nH]1)C(=O)c1ncc(-c2c(Cl)cccc2Cl)o1` [Compound 157], the inhibition constant Ki (Example 6 table) came out at 0.26 µM.
Regarding `CC(=O)N[C@H](C(=O)N1C[C@H](OCc2ccccc2)C[C@H]1C(=O)N[C@H](C=O)CC(=O)O)C(C)C` [Compound 158] (Ac-Val-[Hyp](Bn)-Asp-aldehyde), the Ki (Example 6 table) came out at 1.1 µM.
Consider `CC(=O)N[C@@H](Cc1ccc(O)cc1)C(=O)N[C@H](C(=O)N1C[C@H](Oc2ccccc2)CC1C(=O)N[C@@H](CC(=O)O)C(=O)CSCc1ccccc1Cl)C(C)C` (some centres unmarked) [Compound 161], for which the Ki (Example 6 table) was determined as 0.011 µM.
Take `CC(=O)N[C@@H](Cc1ccc(O)cc1)C(=O)N[C@H](C(=O)N1Cc2ccccc2C[C@H]1C(=O)N[C@H](C=O)CC(=O)O)C(C)C` [L, N-[2-(N-Acetyl-tyrosinyl-valinyl)-(S)-1,2,3,4-tetrahydroisoquinoline-3-carbonyl]-3-amino-oxobutanoic acid] (Ac-YV[Tic]D-aldehyde): the Ki (Example 2 table) worked out at 0.014 µM.

The Ki is the dissociation constant of the complex between target and ligand, obtained from inhibition or displacement. The low end stands for higher affinity, the high end for lower affinity.
